Measured values from patent publication US20080248008A1, “Inhibitors of Protein Kinase a Anchoring” (priority 2004, published 2008).
“Also recorded” adds a separate entry of the source.

What was measured:
PKA-RIα = PKA-RIα (Homo sapiens, UniProt P10644); assay: Immunofluorescence of PKA-RIα localisation in human T cells; assay type: cell-based; set-up: endogenous in cells; host or cells: human peripheral blood CD3+ T cells; settings: 5 μM
Method: Immunofluorescence analysis of cells was performed as previously described (Collas, P. et al., 1996, J. Cell Biol. 135, 1715-1725). RI was detected by using an anti-RI monoclonal antibody (Transduction Laboratories) as a primary antibody at a […] and Alexa-488 as a secondary antibody (1:600, Goat anti Mouse IgGs, Molecular Probes). Immunofluorescence was performed on Y1 cells attached to collagen/fibronectin coated coverslips. Mitochondria were stained using MitoTracker Red CMXRos (Molecular Probes) in fresh medium with incubation at 37° C. for 30 min prior to cell fixation. All cells were washed in PBS, fixed with 3% paraformaldehyde and permeabilised using 0.1% Triton X-100. Proteins were blocked in 2% BSA/PBST prior to antibody labeling. Primary and secondary antibodies were used at a 1:200 dilution in BSA/PBST and incubated for 30 min. DNA was counterstained using TO-PRO 3 (Molecular Probes) at a concentration of 1 μM. […] Alternatively, fluorescently labeled cells were examined using a Leica TCS SP1 confocal fluorescence microscope (Leica, Heidelberg, Germany) equipped with an Ar (488 nm) and two He/Ne (543 and 633 nm) laser lines. […]
Isolated human peripheral blood T cells were treated with MEME3-Arg11 peptide at different concentrations, and the location of PKARIα determined by immunofluorescence.

PKA-RIIα = PKA-RIIα (Homo sapiens, UniProt P13861); assay: Displacement of PKA-RII from the particulate fraction in T cells; assay type: cell-based; set-up: endogenous in cells; host or cells: human peripheral blood CD3+ T cells; settings: increasing concentrations, relative to PKCα
Chain of PKA-RIIα (P13861 whole entry): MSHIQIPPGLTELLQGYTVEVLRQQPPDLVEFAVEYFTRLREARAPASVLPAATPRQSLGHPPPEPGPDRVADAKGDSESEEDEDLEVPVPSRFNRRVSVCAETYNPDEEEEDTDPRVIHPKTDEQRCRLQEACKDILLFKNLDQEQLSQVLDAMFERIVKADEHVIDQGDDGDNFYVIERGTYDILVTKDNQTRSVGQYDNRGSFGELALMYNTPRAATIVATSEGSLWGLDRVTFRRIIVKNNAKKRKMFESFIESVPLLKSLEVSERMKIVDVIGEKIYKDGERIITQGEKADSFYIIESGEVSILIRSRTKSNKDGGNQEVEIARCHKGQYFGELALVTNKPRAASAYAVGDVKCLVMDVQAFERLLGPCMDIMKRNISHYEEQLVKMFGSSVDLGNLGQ
Method: Displacement of PKA-RII from the particulate Fraction in T-cells. Negatively selected CD3^+ T-cells (20×10^6/3 ml/well) were cultured in 6-well plates with 0-50 μM Arg11-SuperAKAPIS (or 0-50 μM M3-Arg11) for 12 hours. Cells were lysed in 250 μl lysis buffer (50 mM Tris pH 7.4, 100 mM NaCl, 5 mM EDTA, 50 mM NaF, 10 mM Na-pyrofosfat, 1 mM Na3VO4, 1 mM PMSF, 0.7% triton X-100) and centrifuged at 14 000×g for 10 min. The sedimented proteins were resuspended in loading dye before being resolved by SDS/PAGE and detected by immunoblotting.
To assess the effect of MEME3-Arg11 on anchoring of PKA type II, T cells were treated with MEME3-Arg11 or Arg11-super-AKAP-is (as a positive control) and particulate fractions were isolated, followed by 10% PAGE and blotting onto a PVDF membrane (fraction no. 2-4, FIG. 17 in upper panel) and analysed by immunoblotting using antibodies against PKA-RIIα (FIG. 17, upper panel). The levels of PKA-RIIα in the particulate fractions were measured by densitometry of the autoradiograms (lower panel). The level of PKA-RIIα was set relative to that of the internal standard PKCα.

[1] = biological target: T1, N-terminal RIα deletion mutants (Bos taurus, UniProt P00514, A98S); assay: R-overlay with N-terminal RIα deletion mutants; assay type: binding
T1 construct: made in house; host or cells: E. coli BL21 (B121 [sic])
T1 sequence (P00514 25-380 A98S): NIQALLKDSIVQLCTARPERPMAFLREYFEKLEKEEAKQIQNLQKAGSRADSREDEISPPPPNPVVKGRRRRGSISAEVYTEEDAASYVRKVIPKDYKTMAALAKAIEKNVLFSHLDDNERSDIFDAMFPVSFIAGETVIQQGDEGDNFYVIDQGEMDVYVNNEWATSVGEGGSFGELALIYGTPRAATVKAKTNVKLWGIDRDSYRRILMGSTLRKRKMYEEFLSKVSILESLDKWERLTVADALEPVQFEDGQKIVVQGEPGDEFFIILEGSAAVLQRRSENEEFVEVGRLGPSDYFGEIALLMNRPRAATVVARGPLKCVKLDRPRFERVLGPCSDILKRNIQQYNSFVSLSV
Method: (§1) R-overlay. R-overlays were conducted as described, using ^32P-labeled recombinant murine RII (Hausken, Z. E., et al., 1998 in Protein Targeting Protocols, ed. Clegg, R. A. (Humana, Totowa, N.J.), Vol. 88, pp. 47-64) or recombinant bovine RI (A98S) or by cold RI-overlay where bound RIα was detected by Western blot. Cold RI-overlay was performed by incubating the membranes with 250 nM RI overnight at 4° C., then the membranes were washed five times in TBST for 5 min. Detection of RI was performed using an anti-RI rabbit polyclonal antibody (Santa Cruz) at a concentration of 0.2 μg/μl for 1 hour at 4° C. Then the membranes were washed five times for 5 minutes in PBS followed by incubation with HRP-conjugated anti-rabbit IgGs (1:5000) for 1 hour at 4° C. The membranes were washed in PBS as described above before detection by Supersignal West Dura Extended Duration Substrate (Pierce).
(§2) Constructs and mutagenesis. […]
(§3) MEME3 and SM3 (scrambled negative control peptide) were cloned by preferred codon usage (Haas et al., 1996, Current Biol., 6:315-324) and with an N-terminal GFP-fusion. Lysate from transfected HEK293 cells (FIG. 10, left panel in A) and MEME3 synthesized on membrane (right panel in A) were analysed for R binding by RIα-^32P-overlay and RIIα-^32P overlay. […]

[2] = tested on: N-terminal RIα deletion mutants; assay: R-overlay with N-terminal RIα deletion mutants; assay type: binding; settings: compared with RIα
Method: as §1, §2, §3

Row | Compound | displacement of RI from T cell membranes / cell periphery (PKA-RIα) | PKA-RIIα in particulate fraction (PKA-RIIα) | binding to RIα (Δ1-24) (overlay) [1] | binding to RIα (Δ1-11) and RIα (Δ1-15) (overlay) [2]
1 | LEQYANQLADQIIKEATERRRRRRRRRrr [MEME3-Arg11] | Displacement of RI from T cell membranes was observed; also recorded: displaced and delocalized | No reduction in PKA-RIIα | – | –
2 | CC[C@H](C)[C@H](NC(=O)[C@H](CCC(N)=O)NC(=O)[C@H](CC(=O)O)NC(=O)[C@H](C)NC(=O)[C@H](CC(C)C)NC(=O)[C@H](CCC(N)=O)NC(=O)[C@H](CC(N)=O)NC(=O)[C@H](C)NC(=O)[C@H](Cc1ccc(O)cc1)NC(=O)[C@H](CCC(N)=O)NC(=O)[C@H](CCC(=O)O)NC(=O)[C@@H](N)CC(C)C)C(=O)N[C@H](C(=O)N[C@@H](CCCCN)C(=O)N[C@@H](CCC(=O)O)C(=O)N[C@@H](C)C(=O)N[C@H](C(=O)N[C@@H](CCC(=O)O)C(=O)N[C@@H](CCCCNC(=O)c1ccc2c(c1)C(=O)OC21c2ccc(O)cc2Oc2cc(O)ccc21)C(N)=O)[C@@H](C)O)[C@@H](C)CC [MEME3] | – | – | No binding | even higher affinity
